Target: ROCK2 (Homo sapiens (Human), UniProt O75116)
Experiment: ROCK2 assay (peptide phosphorylation, LABCHIP 3000 Reader)
Assay type: biochemical
Settings: 5 μM ATP, 1.5 μM peptide substrate, dose-response
Experimental: After incubation, the reaction was terminated by the addition of EDTA and the phosphorylated and non-phosphorylated peptides separated using a LABCHIP®3000 Reader (Caliper Life Sciences). […] Compounds were tested in dose-response format, and the inhibition of kinase activity was calculated at each concentration of compound. […] Representative Examples were tested in the ROCK2 assay described above and found having ROCK2 inhibitory activity.

Chain of ROCK2 (O75116 whole entry, species assumed): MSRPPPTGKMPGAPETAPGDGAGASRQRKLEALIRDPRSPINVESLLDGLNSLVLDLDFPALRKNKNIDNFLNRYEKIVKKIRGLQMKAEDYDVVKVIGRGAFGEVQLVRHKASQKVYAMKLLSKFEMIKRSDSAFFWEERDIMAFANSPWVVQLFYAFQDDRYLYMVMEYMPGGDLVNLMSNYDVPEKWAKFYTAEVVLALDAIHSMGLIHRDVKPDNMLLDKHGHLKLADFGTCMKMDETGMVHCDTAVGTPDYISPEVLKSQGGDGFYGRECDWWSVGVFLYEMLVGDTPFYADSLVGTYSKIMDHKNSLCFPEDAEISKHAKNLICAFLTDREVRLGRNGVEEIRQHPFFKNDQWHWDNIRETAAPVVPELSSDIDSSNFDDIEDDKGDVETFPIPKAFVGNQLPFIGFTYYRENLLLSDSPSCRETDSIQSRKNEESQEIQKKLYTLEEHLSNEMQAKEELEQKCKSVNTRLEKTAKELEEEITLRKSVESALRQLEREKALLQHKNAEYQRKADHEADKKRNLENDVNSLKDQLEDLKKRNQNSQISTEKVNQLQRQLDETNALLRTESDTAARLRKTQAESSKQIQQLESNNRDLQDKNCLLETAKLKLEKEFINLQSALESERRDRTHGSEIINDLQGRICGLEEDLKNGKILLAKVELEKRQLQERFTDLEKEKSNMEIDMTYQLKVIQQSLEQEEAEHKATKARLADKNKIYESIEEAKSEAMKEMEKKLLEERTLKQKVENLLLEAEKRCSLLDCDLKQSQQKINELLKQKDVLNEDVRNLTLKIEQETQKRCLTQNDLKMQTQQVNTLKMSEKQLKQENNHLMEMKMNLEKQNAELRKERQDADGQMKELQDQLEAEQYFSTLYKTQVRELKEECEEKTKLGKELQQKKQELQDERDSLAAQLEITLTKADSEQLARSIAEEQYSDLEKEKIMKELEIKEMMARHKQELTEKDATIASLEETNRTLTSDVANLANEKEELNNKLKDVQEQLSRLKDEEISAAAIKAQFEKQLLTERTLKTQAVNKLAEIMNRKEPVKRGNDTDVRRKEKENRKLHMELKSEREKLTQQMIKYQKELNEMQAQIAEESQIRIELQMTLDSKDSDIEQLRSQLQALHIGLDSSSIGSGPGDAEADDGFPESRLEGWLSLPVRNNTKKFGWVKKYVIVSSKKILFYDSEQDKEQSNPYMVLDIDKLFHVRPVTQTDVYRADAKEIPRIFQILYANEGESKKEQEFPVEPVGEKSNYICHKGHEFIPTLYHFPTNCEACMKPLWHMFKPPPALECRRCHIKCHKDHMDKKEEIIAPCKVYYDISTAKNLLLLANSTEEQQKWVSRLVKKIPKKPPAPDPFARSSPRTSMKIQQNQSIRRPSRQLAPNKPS

| Compound | IC50 [nM] |
| --- | --- |
| Cn1ncc2cc(C(N)=O)c(O[C@H]3C[C@@]4(C[C@H](NC(=O)c5nn(CC(F)F)c6cc(OCC(C)(C)F)ccc56)C4)C3)nc21 (stereo partly shown) [Example 160, 1-(2,2-difluoroethyl)-6-(2-fluoro-2-methylpropoxy)-N-[(4s)-6-({5-carbamoyl-1-methyl-1H-pyrazolo[3,4-b]pyridin-6-yl}oxy)spiro[3.3]heptan-2-yl]-1H-indazole-3-carboxamide] | 1.6 |
| CC(C)(O)COc1ccc2c(C(=O)NC3CC4(C3)CC(Oc3nc5ncccc5cc3C(N)=O)C4)cnn2c1C1CC1 [Example 7, 2-(((aR)-6-(7-Cyclopropyl-6-(2-hydroxy-2-methylpropoxy)pyrazolo[1,5-a]pyridine-3-carboxamido)spiro[3.3]heptan-2-yl)oxy)-1,8-naphthyridine-3-carboxamide] | 4.8 |
| CC(C)(O)COc1ccc2c(C(=O)N[C@H]3C[C@]4(C3)C[C@H](Oc3nn(-c5ccccc5)cc3C(N)=O)C4)nn(C(F)F)c2c1 (stereo partly drawn) [Example 42, 1-(difluoromethyl)-6-(2-hydroxy-2-methylpropoxy)-N-[(aR)-6-[(4-carbamoyl-1-phenyl-1H-pyrazol-3-yl)oxy]spiro[3.3]heptan-2-yl]-1H-indazole-3-carboxamide] | 13.7 |
| Cc1nc(NCC(C)C)sc1C(=O)N[C@H]1C[C@]2(C1)C[C@H](Oc1nc3c(cc1C(N)=O)COCC3)C2 (stereo partly shown) [Example 145, 4-methyl-2-[(2-methylpropyl)amino]-N-[(4s)-6-({3-carbamoyl-5H,7H,8H-pyrano[4,3-b]pyridin-2-yl}oxy)spiro[3.3]heptan-2-yl]-1,3-thiazole-5-carboxamide] | 111 |
| COc1nc(O[C@H]2C[C@@]3(C[C@H](NC(=O)c4cnn(-c5ccc(Cl)cc5)c4C)C3)C2)c(C(N)=O)s1 (stereo partly shown) [Example 113, 2-methoxy-4-{[(4s)-6-[1-(4-chlorophenyl)-5-methyl-1H-pyrazole-4-amido]spiro[3.3]heptan-2-yl]oxy}-1,3-thiazole-5-carboxamide] | 53.1 |
| NC(=O)c1cc2sccc2nc1OC1CC2(CC(NC(=O)C3CC(=O)N(Cc4ccc(Cl)cc4)C3)C2)C1 (single isomer, unassigned) [Example 78, N-[6-({6-carbamoylthieno[3,2-b]pyridin-5-yl}oxy)spiro[3.3]heptan-2-yl]-1-[(4-chlorophenyl)methyl]-5-oxopyrrolidine-3-carboxamide] | 3100 |
| Cc1cccc2c(C(N)=O)c(O[C@H]3C[C@@]4(C[C@H](NC(=O)c5nn(C(F)F)c6cc(OCC(C)(C)O)ccc56)C4)C3)nn12 (stereo partly shown) [Example 133, 1-(difluoromethyl)-6-(2-hydroxy-2-methylpropoxy)-N-[(4s)-6-({3-carbamoyl-7-methylpyrazolo[1,5-a]pyridin-2-yl}oxy)spiro[3.3]heptan-2-yl]-1H-indazole-3-carboxamide] | 20.2 |
| N#Cc1cccc(C(=O)N[C@H]2C[C@]3(C2)C[C@H](Oc2nc4c(cc2C(N)=O)COCC4)C3)c1 (stereo partly drawn) [Example 85, 2-{[(aR)-6-(3-cyanobenzamido)spiro[3.3]heptan-2-yl]oxy}-5H,7H,8H-pyrano[4,3-b]pyridine-3-carboxamide] | 144 |
| N#Cc1cc(C(=O)N[C@H]2C[C@]3(C2)C[C@H](Oc2nn(-c4ccccc4)cc2C(N)=O)C3)cc(-c2cnn(C(F)F)c2)c1 (stereo partly drawn) [Example 41, 1-phenyl-3-{[(aR)-6-{3-cyano-5-[1-(difluoromethyl)-1H-pyrazol-4-yl]benzamido}spiro [3.3]heptan-2-yl]oxy}-1H-pyrazole-4-carboxamide] | 55.6 |
| CC(CC1NC(=O)N([C@H]2C[C@@]3(C[C@H](Oc4nn5ccccc5c4C(N)=O)C3)C2)C1=O)C(F)(F)F (stereo partly shown) [Example 141, 2-{[(4s)-6-[2,5-dioxo-4-(3,3,3-trifluoro-2-methylpropyl)imidazolidin-1-yl]spiro[3.3]heptan-2-yl]oxy}pyrazolo[1,5-a]pyridine-3-carboxamide] | 203 |
| NC(=O)c1c(O[C@H]2C[C@@]3(C[C@H](NC(=O)c4cnn5cc(OCC(O)(C(F)(F)F)C(F)(F)F)ccc45)C3)C2)nn2ccccc12 (stereo partly shown) [Example 123, 2-{[(4s)-6-{6-[3,3,3-trifluoro-2-hydroxy-2-(trifluoromethyl)propoxy]pyrazolo[1,5-a]pyridine-3-amido}spiro[3.3]heptan-2-yl]oxy}pyrazolo[1,5-a]pyridine-3-carboxamide] | 241 |

More lines, now with the values ahead:

| IC50 [nM] | Compound |
| --- | --- |
| 2.7 | Cn1ncc2cc(C(N)=O)c(O[C@H]3C[C@@]4(C[C@H](NC(=O)c5cc(-c6ccc(C#N)cc6)n(C(F)F)n5)C4)C3)nc21 (stereo partly shown) [Example 155, 5-(4-cyanophenyl)-1-(difluoromethyl)-N-[(4s)-6-({5-carbamoyl-1-methyl-1H-pyrazolo[3,4-b]pyridin-6-yl}oxy)spiro[3.3]heptan-2-yl]-1H-pyrazole-3-carboxamide] |
| 4.5 | CC(C)(O)COc1ccc2c(C(=O)N[C@H]3C[C@]4(C3)C[C@H](Oc3nn(C5CC5)cc3C(N)=O)C4)cnn2c1C1CC1 (stereo partly drawn) [Example 69, 1-cyclopropyl-3-({(aR)-6-[7-cyclopropyl-6-(2-hydroxy-2-methylpropoxy)pyrazolo [1,5-a]pyridine-3-amido]spiro[3.3]heptan-2-yl}oxy)-1H-pyrazole-4-carboxamide] |
| 45.4 | Cc1nc(O[C@H]2C[C@@]3(C[C@H](NC(=O)c4cnn5cc(OCC(F)F)ccc45)C3)C2)c(C(N)=O)s1 (stereo partly drawn) [Example 70, 2-methyl-4-{[(aR)-6-[6-(2,2-difluoroethoxy)pyrazolo [1,5-a]pyridine-3-amido]spiro[3.3]heptan-2-yl]oxy}-1,3-thiazole-5-carboxamide] |
| 323 | NC(=O)c1cc2c(nc1OC1CC3(CC(NC(=O)c4cnn5ccccc45)C3)C1)CCOC2 (stereo not shown) [Example 81, 2-[(6-{pyrazolo[1,5-a]pyridine-3-amido}spiro[3.3]heptan-2-yl)oxy]-5H,7H,8H-pyrano[4,3-b]pyridine-3-carboxamide] |
| 6 | Cn1ncc2cc(C(N)=O)c(O[C@H]3C[C@@]4(C[C@H](NC(=O)c5cnn6cc(OCC(C)(C)O)ccc56)C4)C3)nc21 (stereo partly drawn) [Example 101, 1-methyl-6-{[(aR)-6-[6-(2-hydroxy-2-methylpropoxy)pyrazolo [1,5-a]pyridine-3-amido]spiro[3.3]heptan-2-yl]oxy}-1H-pyrazolo[3,4-b]pyridine-5-carboxamide] |
| 330 | NC(=O)c1cc2c(nc1O[C@H]1C[C@@]3(C[C@H](NC(=O)c4ccc5[nH]ncc5c4)C3)C1)CCOC2 (stereo partly drawn) [Example 91, N-[(aR)-6-({3-carbamoyl-5H,7H,8H-pyrano[4,3-b]pyridin-2-yl}oxy)spiro[3.3]heptan-2-yl]-1H-indazole-5-carboxamide] |
| 2.9 | Cn1ncc2cc(C(N)=O)c(O[C@H]3C[C@@]4(C[C@H](NC(=O)c5cnn6c(C7CC7)c(OCC(C)(C)O)ccc56)C4)C3)nc21 (stereo partly shown) [Example 147, 7-cyclopropyl-6-(2-hydroxy-2-methylpropoxy)-N-[(4s)-6-({5-carbamoyl-1-methyl-1H-pyrazolo[3,4-b]pyridin-6-yl}oxy)spiro[3.3]heptan-2-yl]pyrazolo[1,5-a]pyridine-3-carboxamide] |
| 716 | N#Cc1ccc(F)c(C(=O)N[C@H]2C[C@]3(C2)C[C@H](Oc2nc4c(cc2C(N)=O)COCC4)C3)c1 (stereo partly drawn) [Example 89, 2-{[(aR)-6-(5-cyano-2-fluorobenzamido)spiro[3.3]heptan-2-yl]oxy}-5H,7H,8H-pyrano[4,3-b]pyridine-3-carboxamide] |

Source: patent publication US11078197B2, “5-membered and bicyclic heterocyclic amides as inhibitors of rock” (BRISTOL-MYERS SQUIBB COMPANY, priority 2017, dated 2021)
